Measurements reported in PMC11406361, “Several orphan solute carriers functionally identified as organic cation transporters: Substrates specificity compared with known cation transporters” (The Journal of Biological Chemistry, 2024).

How the values were obtained:
SLC44A1 = SLC44A1 (Homo sapiens, UniProt Q8WWI5); conditions: 2.5 μM, 2 min, HEK293
Procedure: (§1) Typically discussed substrates of the proton organic-cation antiporter ([14]) are highlighted in dark green in Figure 1.
(§2) In preparation for transport experiments, 24-well plates were pre-coated with poly-D-lysine (Sigma-Aldrich) and 300,000 cells were plated per well and incubated for 48 h. Firstly, the 24-well plate was placed on a heating plate at 37 °C, and the cells were washed with 37 °C HBSS^+ buffer (Hank’s balanced salt solution supplemented with 10 mM Hepes and adjusted to pH 7.4; Thermo Fisher Scientific). The substance-of-interest, which was diluted in 37 °C HBSS^+ to a desired concentration, was added to the cells for exactly 2 min. […] The uptake was stopped with ice-cold HBSS^+, and the 24-well plate was removed from the heating plate. The cells were washed twice with the cold HBSS^+ before they were lysed for 15 min with 80% (v/v) acetonitrile containing the respective internal standard for mass spectrometry. For variations in seeded cell numbers between the cell lines, several wells were lysed in RIPA buffer and used for total protein quantification using a bicinchoninic assay ([74]) and bovine serum albumin as calibration.
(§3) The intracellular drug concentrations after transport experiments were analyzed by high-performance liquid chromatography coupled to tandem mass spectrometry analysis. The HPLC consisted of a Shimadzu Nexera HPLC System with a SIL-30AC autosampler, a LC-30AD pump, a CTO-20AC column oven, and a CBM-20A controller (Shimadzu). The reverse-phase chromatography of compounds was accomplished with a Brownlee SPP RP-Amide column with 4.6 × 100 mm inner dimensions, a particle size of 2.7 μm, and a preceding Phenomenex C-18 guard column. The mobile phase was composed of an organic additive with acetonitrile:methanol 6:1 (v/v) in total concentrations between 3% and 50% (v/v) and 0.1% (v/v) formic acid in the aqueous component of the eluent. During separation, the column oven was held at 40 °C and the mobile phase was maintained at a flow rate of 300 or 400 μl/min. After separation, the detection of substances was performed with an API 4000 tandem mass spectrometer (AB SCIEX, https://sciex.com/support/software-support/software-downloads), followed by quantification of results with the Analyst software (AB SCIEX, version 1.6.2). The composition of chromatographic conditions, as well as detailed mass spectrometric detection parameters, are listed in Table S5.
(§4) Transport-mediated net uptake was determined as fold-increase of transporter-overexpressing cells over empty vector–transfected control cells.

SLC35E1 = SLC35E1 (Homo sapiens, UniProt Q96K37); conditions: 2.5 μM, 2 min, HEK293
Sequence of SLC35E1 (Q96K37 whole entry): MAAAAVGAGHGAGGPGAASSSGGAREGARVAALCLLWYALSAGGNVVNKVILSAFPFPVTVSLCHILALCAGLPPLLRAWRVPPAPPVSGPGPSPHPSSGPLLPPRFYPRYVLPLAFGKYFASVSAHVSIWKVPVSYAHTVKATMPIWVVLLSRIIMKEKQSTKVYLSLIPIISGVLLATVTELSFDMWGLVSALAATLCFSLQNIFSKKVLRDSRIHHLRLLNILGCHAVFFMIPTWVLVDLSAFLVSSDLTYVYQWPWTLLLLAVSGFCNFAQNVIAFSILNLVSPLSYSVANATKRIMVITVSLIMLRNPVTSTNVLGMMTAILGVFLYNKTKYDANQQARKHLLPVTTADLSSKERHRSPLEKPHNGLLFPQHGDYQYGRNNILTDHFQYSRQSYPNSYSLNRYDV
Procedure: as §1, §2, §3, §4

SLC44A2 = SLC44A2 (Homo sapiens, UniProt Q8IWA5); conditions: 2.5 μM, 2 min, HEK293
Sequence of SLC44A2 (Q8IWA5 whole entry): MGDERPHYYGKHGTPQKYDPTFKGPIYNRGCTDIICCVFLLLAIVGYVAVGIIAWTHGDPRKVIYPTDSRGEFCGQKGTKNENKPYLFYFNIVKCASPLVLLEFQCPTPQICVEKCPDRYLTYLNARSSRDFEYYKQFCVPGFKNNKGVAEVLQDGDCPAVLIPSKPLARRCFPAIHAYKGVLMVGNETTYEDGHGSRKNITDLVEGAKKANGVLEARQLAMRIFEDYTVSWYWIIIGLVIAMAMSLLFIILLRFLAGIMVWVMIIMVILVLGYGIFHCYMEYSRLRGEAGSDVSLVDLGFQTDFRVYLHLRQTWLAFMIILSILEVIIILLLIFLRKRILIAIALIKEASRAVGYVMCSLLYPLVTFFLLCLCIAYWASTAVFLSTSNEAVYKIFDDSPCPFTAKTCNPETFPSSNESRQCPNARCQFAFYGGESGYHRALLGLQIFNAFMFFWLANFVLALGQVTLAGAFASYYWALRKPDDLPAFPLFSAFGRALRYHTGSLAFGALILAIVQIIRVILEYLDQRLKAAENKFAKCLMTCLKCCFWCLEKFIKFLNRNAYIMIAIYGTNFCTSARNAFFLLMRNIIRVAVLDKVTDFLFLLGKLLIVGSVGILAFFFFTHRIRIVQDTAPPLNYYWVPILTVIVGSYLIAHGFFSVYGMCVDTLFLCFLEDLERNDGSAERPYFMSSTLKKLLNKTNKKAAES
Procedure: as §1, §2, §3, §4

SLC35G4 = SLC35G4 (Homo sapiens, UniProt P0C7Q5); conditions: 2.5 μM, 2 min, HEK293
Sequence of SLC35G4 (P0C7Q5 whole entry): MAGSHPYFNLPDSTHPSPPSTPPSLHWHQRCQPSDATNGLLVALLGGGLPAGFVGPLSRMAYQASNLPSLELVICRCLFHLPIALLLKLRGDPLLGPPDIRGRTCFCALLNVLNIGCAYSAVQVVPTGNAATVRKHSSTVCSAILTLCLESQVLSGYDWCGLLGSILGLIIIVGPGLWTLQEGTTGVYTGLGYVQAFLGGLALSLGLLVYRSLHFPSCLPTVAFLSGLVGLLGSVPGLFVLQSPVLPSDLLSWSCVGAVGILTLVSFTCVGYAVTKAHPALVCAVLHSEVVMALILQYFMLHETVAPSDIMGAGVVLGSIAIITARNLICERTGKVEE
Procedure: as §1, §2, §3, §4

SLC35F4 [1] = target: T1, SLC35F4 (Homo sapiens, UniProt A4IF30); assay: Uptake ratio screen, SLC35F4-overexpressing HEK293 over empty vector cells; type: cell-based; design: by amplifying the entire gene-of-interest within the HEK293 genome via a long-range PCR; conditions: 2.5 μM, 2 min
T1 sequence (A4IF30 1-521): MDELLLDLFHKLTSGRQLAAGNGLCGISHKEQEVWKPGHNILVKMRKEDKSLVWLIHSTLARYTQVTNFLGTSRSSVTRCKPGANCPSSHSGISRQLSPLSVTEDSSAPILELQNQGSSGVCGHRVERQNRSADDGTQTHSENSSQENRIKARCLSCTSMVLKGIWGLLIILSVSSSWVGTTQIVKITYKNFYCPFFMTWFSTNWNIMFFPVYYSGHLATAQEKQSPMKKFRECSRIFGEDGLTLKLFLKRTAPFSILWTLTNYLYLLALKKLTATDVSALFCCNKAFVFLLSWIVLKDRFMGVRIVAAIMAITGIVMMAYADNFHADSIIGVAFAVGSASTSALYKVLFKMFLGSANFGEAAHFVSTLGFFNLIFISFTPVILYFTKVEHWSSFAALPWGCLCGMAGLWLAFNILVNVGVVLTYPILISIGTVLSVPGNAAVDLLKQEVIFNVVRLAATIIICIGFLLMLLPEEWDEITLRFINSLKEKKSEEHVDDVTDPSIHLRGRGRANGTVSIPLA
Procedure: as §1, §2, §3, §4

SLC35F5 = target: T2, SLC35F5 (Homo sapiens, UniProt Q8WV83); assay: Uptake ratio screen, SLC35F5-overexpressing HEK293 over empty vector cells; type: cell-based; design: by amplifying the entire gene-of-interest within the HEK293 genome via a long-range PCR; conditions: 2.5 μM, 2 min
T2 sequence (Q8WV83 1-523): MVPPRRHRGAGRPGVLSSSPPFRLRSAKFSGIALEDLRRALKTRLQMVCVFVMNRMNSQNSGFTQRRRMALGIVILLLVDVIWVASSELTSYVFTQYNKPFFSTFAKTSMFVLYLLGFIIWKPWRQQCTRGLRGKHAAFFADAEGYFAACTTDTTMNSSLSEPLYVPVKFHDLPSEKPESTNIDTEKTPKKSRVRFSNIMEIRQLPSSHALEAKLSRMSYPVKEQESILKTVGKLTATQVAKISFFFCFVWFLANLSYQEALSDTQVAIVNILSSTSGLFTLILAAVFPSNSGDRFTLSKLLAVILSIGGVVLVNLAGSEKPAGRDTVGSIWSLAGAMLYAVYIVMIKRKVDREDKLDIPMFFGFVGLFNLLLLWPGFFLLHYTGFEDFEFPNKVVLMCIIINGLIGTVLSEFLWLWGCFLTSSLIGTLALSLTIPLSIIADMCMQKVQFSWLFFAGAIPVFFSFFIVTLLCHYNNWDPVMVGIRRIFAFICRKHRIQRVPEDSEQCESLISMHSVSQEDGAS
Procedure: as §1, §2, §3, §4

SLC35E4 = target: T3, SLC35E4 (Homo sapiens, UniProt Q6ICL7); assay: Uptake ratio screen, SLC35E4-overexpressing HEK293 over empty vector cells; type: cell-based; design: by amplifying the entire gene-of-interest within the HEK293 genome via a long-range PCR; conditions: 2.5 μM, 2 min
T3 sequence (Q6ICL7 1-350): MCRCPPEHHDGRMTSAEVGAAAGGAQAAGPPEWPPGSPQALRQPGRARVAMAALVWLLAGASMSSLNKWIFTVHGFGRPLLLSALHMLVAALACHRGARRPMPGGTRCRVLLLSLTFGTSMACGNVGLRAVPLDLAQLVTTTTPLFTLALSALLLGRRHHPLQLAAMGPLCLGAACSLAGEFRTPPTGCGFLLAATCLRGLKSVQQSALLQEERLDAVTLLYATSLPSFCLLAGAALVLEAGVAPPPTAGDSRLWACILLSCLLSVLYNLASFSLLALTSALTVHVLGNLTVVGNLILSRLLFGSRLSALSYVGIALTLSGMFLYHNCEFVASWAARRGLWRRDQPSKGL
Procedure: as §1, §2
The intracellular drug concentrations after transport experiments were analyzed by high-performance liquid chromatography coupled to tandem mass spectrometry analysis. The HPLC consisted of a Shimadzu Nexera HPLC System with a SIL-30AC autosampler, a LC-30AD pump, a CTO-20AC column oven, and a CBM-20A controller (Shimadzu). The reverse-phase chromatography of compounds was accomplished with a Brownlee SPP RP-Amide column with 4.6 × 100 mm inner dimensions, a particle size of 2.7 μm, and a preceding Phenomenex C-18 guard column. […] After separation, the detection of substances was performed with an API 4000 tandem mass spectrometer (AB SCIEX, https://sciex.com/support/software-support/software-downloads), followed by quantification of results with the Analyst software (AB SCIEX, version 1.6.2). […]
as §4

SLC35F4 [2] = target: T1, SLC35F4

Sequence of SLC44A1 (Q8WWI5 whole entry): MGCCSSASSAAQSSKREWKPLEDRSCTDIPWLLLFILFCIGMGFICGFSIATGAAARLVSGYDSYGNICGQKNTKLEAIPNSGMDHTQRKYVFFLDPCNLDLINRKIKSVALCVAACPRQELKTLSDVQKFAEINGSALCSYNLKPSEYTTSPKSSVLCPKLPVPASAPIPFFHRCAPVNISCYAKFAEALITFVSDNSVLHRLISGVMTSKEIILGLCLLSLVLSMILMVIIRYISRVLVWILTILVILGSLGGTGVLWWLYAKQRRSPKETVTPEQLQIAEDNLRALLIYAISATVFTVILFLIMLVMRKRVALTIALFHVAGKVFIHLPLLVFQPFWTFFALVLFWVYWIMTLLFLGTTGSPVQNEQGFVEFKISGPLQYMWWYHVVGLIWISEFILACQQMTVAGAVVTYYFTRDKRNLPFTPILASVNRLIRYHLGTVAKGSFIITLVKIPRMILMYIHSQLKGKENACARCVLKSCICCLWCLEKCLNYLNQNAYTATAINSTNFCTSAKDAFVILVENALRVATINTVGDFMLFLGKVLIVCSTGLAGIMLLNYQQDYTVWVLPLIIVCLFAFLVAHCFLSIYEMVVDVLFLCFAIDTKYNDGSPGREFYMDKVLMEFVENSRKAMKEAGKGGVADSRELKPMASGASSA

For `C[N+](C)(C)CCO` [Choline], the “Uptake by SLC44A1 (CTL1) (in words)” value (SLC44A1) was “moderate choline uptake”, the “Uptake by SLC35E1 (in words)” value (SLC35E1) was “significantly enhanced” and the “Uptake by SLC44A2 (CTL2) (in words)” value (SLC44A2) was “moderate choline uptake”. The “Uptake by SLC35G4 (in words)” value (SLC35G4) was “extensively enhanced the cell uptake”, the “Uptake by SLC35F4 (in words)” value (SLC35F4 [1]) was “enhanced cell uptake” and the “Uptake by SLC35F5 (in words)” value (SLC35F5) was “highest uptake rates”. For the same molecule, the “Uptake by SLC35E4 (in words)” value (SLC35E4) was “moderate influx transport activity” and the “Clint (±SEM)” value (SLC35F4 [2]) was 1.32 (±1.74) μl × mg protein^-1 × min^-1.
